This note sets out measurements from US20260365670A1, “EGFR INHIBITORS AND USES THEREOF” (DIZAL (JIANGSU) PHARMACEUTICAL CO., LTD., priority 2022, published 2026).

pIC50: −log10 of the molar value. Read-outs that look alike come from different tables or passages of the source. Bounds are passed on as bounds.

The target in test [1] is T1, EGFR[T790M/C797S/d746-750] (Homo sapiens, UniProt P00533, C797S/DEL746-750/T790M).
T1 construct: purchased Carna Bio
Nature of the test: Inhibition of EGFR[T790M/C797S/d746-750] biochemical enzymatic activity (HTRF). Particulars: for pIC50: EGFR[T790M/C797S/d746-750], 1 mM ATP, 1 h at room temperature, read-out: IC50 @T790M - C797S - Del19. The method, boiled down:
(§1)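 Recombinant kinases phosphorylated 1 μM biotinylated TK substrate with 1 mM ATP in buffer with 5 mM MgCl2, 1 mM MnCl2, 0.01% CHAPS, 1 mM DTT, 0.5% DMSO. Reaction ran 1 h at room temperature, stopped with EDTA-containing detection mix. HTRF 665/615 nm ratio gave IC50 via four-parameter logistic fit.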

For the next test, the system named is PC-9. Nature of the test: Cell proliferation assay, PC-9 cells (CellTiter-Glo, 72 hours). The format is cell-based. Particulars: PC9 cells, read-out: GI50 PC9. The method in brief:
(§2)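 Cells are exposed to graded compound concentrations after overnight plating, using 500 PC-9 or 5000 Ba/F3 per well. Baseline-subtracted viability is compared with vehicle to give percent proliferation, then GI50.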

For another test, the target named is T2, EGFR (d746-750 C797S) (Homo sapiens, UniProt P00533, C797S/DEL746-750).
T2 construct: purchased signalchem
T2 sequence (P00533 with tags, fused parts or gaps DEL746-750/C797S limits assumed): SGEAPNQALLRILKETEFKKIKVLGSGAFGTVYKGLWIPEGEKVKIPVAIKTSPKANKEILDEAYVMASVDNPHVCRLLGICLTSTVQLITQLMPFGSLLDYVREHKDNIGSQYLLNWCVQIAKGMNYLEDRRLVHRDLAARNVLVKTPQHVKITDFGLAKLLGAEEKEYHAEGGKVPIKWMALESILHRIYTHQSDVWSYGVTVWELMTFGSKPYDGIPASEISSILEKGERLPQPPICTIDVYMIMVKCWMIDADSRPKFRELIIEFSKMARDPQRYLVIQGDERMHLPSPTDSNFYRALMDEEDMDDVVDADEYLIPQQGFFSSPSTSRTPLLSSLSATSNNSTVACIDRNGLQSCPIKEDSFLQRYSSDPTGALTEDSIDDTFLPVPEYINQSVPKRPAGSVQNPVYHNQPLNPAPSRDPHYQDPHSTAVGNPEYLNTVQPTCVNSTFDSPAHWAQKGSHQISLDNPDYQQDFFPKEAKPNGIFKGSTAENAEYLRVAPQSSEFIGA
The experiment in a line: Inhibition of EGFR (d746-750 C797S) biochemical enzymatic activity (HTRF). Particulars: 1 mM ATP; for pIC50: EGFR (d746-750 C797S), 1 h at room temperature, read-out: IC50 @Del19-C797S. The method, boiled down: as §1

The target of the next test is T3, EGFR[T790M/C797S/L858R] (Homo sapiens, UniProt P00533, C797S/L858R/T790M).
T3 construct: purchased Carna Bio
T3 sequence (P00533 25-1210 T790M/C797S/L858R): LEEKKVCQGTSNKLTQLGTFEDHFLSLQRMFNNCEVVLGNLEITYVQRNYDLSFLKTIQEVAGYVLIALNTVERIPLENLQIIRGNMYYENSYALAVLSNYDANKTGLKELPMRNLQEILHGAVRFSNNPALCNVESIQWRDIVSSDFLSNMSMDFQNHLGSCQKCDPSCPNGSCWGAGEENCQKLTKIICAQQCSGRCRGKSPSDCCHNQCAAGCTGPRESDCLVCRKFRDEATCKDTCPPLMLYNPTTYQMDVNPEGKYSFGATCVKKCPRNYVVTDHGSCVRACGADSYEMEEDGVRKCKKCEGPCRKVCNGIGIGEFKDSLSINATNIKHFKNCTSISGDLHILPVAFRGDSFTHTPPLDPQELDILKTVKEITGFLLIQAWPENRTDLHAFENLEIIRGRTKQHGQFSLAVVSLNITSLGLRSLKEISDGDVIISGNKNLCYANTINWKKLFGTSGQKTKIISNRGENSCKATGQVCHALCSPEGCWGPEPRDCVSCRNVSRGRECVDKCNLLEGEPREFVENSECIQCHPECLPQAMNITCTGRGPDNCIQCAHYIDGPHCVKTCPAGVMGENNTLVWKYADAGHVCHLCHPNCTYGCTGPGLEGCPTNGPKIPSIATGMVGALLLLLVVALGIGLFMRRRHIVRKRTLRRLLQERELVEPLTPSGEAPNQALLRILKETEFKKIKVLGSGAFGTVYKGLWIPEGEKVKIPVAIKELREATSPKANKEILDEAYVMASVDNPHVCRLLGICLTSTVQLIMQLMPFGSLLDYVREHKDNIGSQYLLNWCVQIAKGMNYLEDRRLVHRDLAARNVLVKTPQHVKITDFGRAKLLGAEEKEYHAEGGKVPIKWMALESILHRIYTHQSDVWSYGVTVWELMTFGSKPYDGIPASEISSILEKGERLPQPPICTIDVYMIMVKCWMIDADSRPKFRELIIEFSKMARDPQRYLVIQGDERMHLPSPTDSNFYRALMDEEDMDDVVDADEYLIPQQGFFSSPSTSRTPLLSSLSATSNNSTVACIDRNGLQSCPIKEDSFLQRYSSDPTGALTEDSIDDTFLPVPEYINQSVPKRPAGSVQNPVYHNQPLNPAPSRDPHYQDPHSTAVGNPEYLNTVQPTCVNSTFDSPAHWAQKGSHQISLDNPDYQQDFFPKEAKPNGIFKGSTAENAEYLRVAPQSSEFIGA
The experiment in a line: Inhibition of EGFR[T790M/C797S/L858R] biochemical enzymatic activity (HTRF). The note with it: 1 mM ATP; for pIC50: EGFR[T790M/C797S/L858R], 1 h at room temperature, read-out: IC50 @T790M- C797S - L858R. The method, boiled down: as §1

The next test addresses T4, EGFR L858R/T790M (Homo sapiens, UniProt P00533, L858R/T790M).
T4 construct: purchased Carna Bio
The experiment in a line: Inhibition of EGFR L858R/T790M biochemical enzymatic activity (HTRF). The note with it: 1 mM ATP; for pIC50: EGFR L858R/T790M, 1 h at room temperature, read-out: IC50 @L858R-T790M. The method, boiled down:
as §1

The test system of test [2] is Ba/F3 cells expressing EGFR mutations. Nature of the test: Cell proliferation assay, Ba/F3 cells expressing EGFR mutations (CellTiter-Glo, 72 hours). The format is cell-based. The method, boiled down:
as §2

Another test has as its target T5, EGFR (C797S L858R) (Homo sapiens, UniProt P00533, C797S/L858R).
T5 construct: purchased signalchem
The experiment in a line: Inhibition of EGFR (C797S L858R) biochemical enzymatic activity (HTRF). The note with it: 1 mM ATP; for pIC50: EGFR (C797S L858R), 1 h at room temperature, read-out: IC50 @L858-C797S. The method, boiled down:
as §1

The next test has as its target T6, EGFR L858R (Homo sapiens, UniProt P00533, L858R).
T6 construct: purchased Carna Bio
Nature of the test: Inhibition of EGFR L858R biochemical enzymatic activity (HTRF). The note with it: 1 mM ATP; for pIC50: 1 h at room temperature, read-out: IC50 @L858R. The method in brief:
as §1

For another test, the target named is T7, EGFR Exon19Del/T790M (Homo sapiens, UniProt P00533, DEL746-750/T790M).
T7 construct: purchased Carna Bio
T7 sequence (P00533 with tags, fused parts or gaps DEL746-750/T790M limits assumed): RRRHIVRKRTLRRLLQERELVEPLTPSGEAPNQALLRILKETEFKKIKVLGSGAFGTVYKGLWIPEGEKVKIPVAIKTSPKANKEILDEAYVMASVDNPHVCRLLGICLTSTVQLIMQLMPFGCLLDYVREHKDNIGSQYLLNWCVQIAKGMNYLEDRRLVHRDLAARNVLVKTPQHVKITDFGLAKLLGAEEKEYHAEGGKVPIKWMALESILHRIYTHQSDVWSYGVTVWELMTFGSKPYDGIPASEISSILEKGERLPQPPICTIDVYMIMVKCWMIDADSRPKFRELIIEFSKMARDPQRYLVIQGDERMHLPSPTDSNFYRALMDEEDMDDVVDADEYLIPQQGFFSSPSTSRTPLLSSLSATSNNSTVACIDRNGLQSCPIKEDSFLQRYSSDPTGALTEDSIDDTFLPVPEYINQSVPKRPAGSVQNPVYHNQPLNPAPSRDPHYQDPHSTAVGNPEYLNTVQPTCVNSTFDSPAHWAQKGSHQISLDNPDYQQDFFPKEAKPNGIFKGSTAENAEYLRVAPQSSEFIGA
Nature of the test: Inhibition of EGFR Exon19Del/T790M biochemical enzymatic activity (HTRF). Particulars: 1 mM ATP; for pIC50: EGFR Exon19Del/T790M, 1 h at room temperature, read-out: IC50 @Del19-T790M. The method in brief:
as §1

A further test concerns A-431. Nature of the test: Cell proliferation assay, A-431 cells (GI50, Table 6). The format is cell-based.
For the next test, the target named is T8, EGFR Exon19Del (Homo sapiens, UniProt P00533, DEL746-750).
T8 construct: purchased Carna Bio
The experiment in a line: Inhibition of EGFR Exon19Del biochemical enzymatic activity (HTRF). The note with it: read-out: IC50 @Del19. The method, boiled down: as §1

Another test concerns the target T9, EGFR wild type (Homo sapiens, UniProt P00533).
T9 construct: purchased Carna Bio
Nature of the test: Inhibition of EGFR wild type biochemical enzymatic activity (HTRF). Particulars: 1 mM ATP; for pIC50: EGFR wild type, 1 h at room temperature, read-out: IC50 @WT. The method in brief: as §1

Where [3] appears, read: EGFR Exon19Del, 1 mM ATP, 1 h at room temperature.
[4] abbreviates: Mus musculus, BaF3, 72 h, BaF3 cells, EGFR DEL19 - C797S, read-out: GI50 DEL19 - C797S/BaF3.
[5] abbreviates: Mus musculus, BaF3, 72 h, BaF3 cells, EGFR DEL19 - T790-C797S, read-out: GI50 DEL19 - T790-C797S/BaF3.
Where [6] appears, read: Mus musculus, BaF3, 72 h, BaF3 cells, EGFR L858R - C797S, read-out: GI50 L858R - C797S/BaF3.
The mark [7] stands for this setting: Mus musculus, BaF3, 72 h, BaF3 cells, EGFR L858R - T790-C797S, read-out: GI50 L858R - T790-C797S/BaF3.
Where [8] appears, read: Mus musculus, BaF3, 72 h, BaF3 cells, EGFR L858R - T790M, read-out: GI50 L858R - T790M/BaF3.
Setting [9] is: Mus musculus, BaF3, 72 h, BaF3 cells, EGFR L858R, read-out: GI50 L858R/BaF3.
Setting [10] is: Mus musculus, BaF3, 72 h, EGFR DEL19 - T790M, read-out: GI50 DEL19 - T790M.
Where [11] appears, read: Homo sapiens, A-431, A-431 cells.

T5 sequence (P00533 25-1210 C797S/L858R): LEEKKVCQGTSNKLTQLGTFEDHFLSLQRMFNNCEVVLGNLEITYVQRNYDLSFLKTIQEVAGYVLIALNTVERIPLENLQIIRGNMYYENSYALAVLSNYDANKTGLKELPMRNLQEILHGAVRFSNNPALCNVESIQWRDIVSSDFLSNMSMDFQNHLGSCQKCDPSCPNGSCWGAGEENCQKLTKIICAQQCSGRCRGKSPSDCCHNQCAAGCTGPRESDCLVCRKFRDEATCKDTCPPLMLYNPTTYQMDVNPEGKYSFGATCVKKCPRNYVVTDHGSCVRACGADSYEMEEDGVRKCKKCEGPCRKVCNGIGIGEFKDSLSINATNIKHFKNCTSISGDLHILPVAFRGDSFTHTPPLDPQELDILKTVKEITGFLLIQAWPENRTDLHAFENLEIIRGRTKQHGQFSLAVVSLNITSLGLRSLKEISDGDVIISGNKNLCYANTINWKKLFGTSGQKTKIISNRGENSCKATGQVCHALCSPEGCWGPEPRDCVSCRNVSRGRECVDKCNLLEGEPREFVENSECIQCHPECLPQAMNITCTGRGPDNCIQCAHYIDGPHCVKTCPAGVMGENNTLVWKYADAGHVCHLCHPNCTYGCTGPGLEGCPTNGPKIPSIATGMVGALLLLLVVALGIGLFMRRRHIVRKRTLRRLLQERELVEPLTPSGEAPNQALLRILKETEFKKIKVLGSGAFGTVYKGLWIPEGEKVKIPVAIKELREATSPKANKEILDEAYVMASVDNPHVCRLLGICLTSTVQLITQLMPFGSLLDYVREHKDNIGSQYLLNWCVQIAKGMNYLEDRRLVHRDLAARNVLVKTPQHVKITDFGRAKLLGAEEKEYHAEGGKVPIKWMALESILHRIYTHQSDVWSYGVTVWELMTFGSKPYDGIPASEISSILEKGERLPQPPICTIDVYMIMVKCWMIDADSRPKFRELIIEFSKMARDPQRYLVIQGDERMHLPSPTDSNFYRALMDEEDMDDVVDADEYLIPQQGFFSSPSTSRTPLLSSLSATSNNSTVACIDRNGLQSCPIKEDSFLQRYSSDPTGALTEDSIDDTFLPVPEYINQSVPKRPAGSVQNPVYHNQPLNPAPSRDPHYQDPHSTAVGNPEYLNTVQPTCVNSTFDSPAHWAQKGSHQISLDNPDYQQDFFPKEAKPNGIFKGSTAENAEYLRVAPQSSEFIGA
T6 sequence (P00533 25-1210 L858R): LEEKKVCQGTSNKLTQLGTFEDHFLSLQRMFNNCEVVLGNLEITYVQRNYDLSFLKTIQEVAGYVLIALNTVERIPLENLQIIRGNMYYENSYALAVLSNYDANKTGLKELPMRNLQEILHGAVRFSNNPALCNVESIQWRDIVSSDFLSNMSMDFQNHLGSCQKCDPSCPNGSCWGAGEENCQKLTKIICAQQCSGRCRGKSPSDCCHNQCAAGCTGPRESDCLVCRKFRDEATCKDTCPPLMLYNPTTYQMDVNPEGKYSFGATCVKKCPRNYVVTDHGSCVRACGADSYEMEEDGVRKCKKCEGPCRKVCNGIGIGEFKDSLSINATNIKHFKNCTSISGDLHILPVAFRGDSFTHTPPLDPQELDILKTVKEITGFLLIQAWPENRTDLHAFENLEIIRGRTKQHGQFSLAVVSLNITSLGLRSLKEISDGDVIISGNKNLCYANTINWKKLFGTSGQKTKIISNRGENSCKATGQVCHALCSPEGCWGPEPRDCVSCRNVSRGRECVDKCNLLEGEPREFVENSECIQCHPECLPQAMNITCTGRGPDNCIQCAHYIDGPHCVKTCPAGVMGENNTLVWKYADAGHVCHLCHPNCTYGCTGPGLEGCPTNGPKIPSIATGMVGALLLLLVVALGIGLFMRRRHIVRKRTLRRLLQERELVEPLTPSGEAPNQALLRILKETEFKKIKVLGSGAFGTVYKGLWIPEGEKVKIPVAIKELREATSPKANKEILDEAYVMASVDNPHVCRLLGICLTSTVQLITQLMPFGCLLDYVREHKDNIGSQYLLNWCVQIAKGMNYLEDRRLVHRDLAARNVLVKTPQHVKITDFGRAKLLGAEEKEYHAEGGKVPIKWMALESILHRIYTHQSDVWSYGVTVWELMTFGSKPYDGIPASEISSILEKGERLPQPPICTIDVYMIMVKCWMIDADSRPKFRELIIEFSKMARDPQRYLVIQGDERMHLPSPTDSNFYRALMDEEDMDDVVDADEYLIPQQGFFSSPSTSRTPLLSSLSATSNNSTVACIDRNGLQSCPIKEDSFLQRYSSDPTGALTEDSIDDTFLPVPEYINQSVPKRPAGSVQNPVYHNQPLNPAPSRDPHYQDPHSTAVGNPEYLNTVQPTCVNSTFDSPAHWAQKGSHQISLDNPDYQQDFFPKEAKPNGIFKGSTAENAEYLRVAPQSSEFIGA

Regarding `Cc1cc2cc(n1)-c1cnn(C)c1OCCN1CC3CCC(C3)(C1)n1c(nc3ccc(N4CCN(C5COC5)CC4)cc31)NC2=O` (single isomer, unassigned) [Example B58B], the pIC50 in test [1] was 8.49; on EGFR (d746-750 C797S) it was 8.38; at EGFR[T790M/C797S/L858R], 8.51; on EGFR L858R/T790M it was 8.23; at EGFR (C797S L858R), 7.48; on EGFR L858R, 6.87. Further, the pIC50 was 8.26 at EGFR Exon19Del/T790M, 7.92 on EGFR Exon19Del (setting [3]) and 5.56 on EGFR wild type. Besides, the GI50 was 9 nM with PC-9; 2 nM in test [2] (BaF3 cells, EGFR DEL19 - C797S, read-out: GI50 DEL19 - C797S/BaF3); 2 nM in [2] (BaF3 cells, EGFR DEL19 - T790-C797S, read-out: GI50 DEL19 - T790-C797S/BaF3); 9 nM in test [2] (BaF3 cells, EGFR L858R - C797S, read-out: GI50 L858R - C797S/BaF3); 2 nM in test [2] (BaF3 cells, EGFR L858R - T790-C797S, read-out: GI50 L858R - T790-C797S/BaF3); 2 nM in test [2] (BaF3 cells, EGFR L858R - T790M, read-out: GI50 L858R - T790M/BaF3). In addition, the GI50 is 13 nM in [2] (BaF3 cells, EGFR L858R, read-out: GI50 L858R/BaF3); 2 nM in test [2] (EGFR DEL19 - T790M, read-out: GI50 DEL19 - T790M); 532 nM with A-431 (A-431 cells).

Turning to `CN1CCC2CN(c3ccc4nc5n(c4c3)C34CCC(CC3)CN(CCOc3c(cnn3C)-c3cc(cn(C)c3=O)C(=O)N5)C4)CC21` (stereo not drawn) [Example A127], the IC50 in test [1] (EGFR T790M-C797S-Del19, 1 mM ATP, 1 h, room temperature, read-out: IC50 (nM) @T790M - C797S - Del19) was 6.1 nM; on EGFR (d746-750 C797S) (EGFR Del19-C797S, 1 h, room temperature, read-out: IC50 (nM) @Del19-C797S), 9.2 nM; on EGFR[T790M/C797S/L858R] (EGFR T790M-C797S-L858R, 1 h, room temperature, read-out: IC50 (nM) @T790M- C797S - L858R) it was 39 nM; on EGFR L858R/T790M (EGFR L858R-T790M, 1 h, room temperature, read-out: IC50 (nM) @L858R-T790M), 211 nM; at EGFR (C797S L858R) (EGFR L858-C797S, 1 h, room temperature, read-out: IC50 (nM) @L858-C797S), 69 nM; on EGFR L858R (1 h, room temperature, read-out: IC50 (nM) @L858R), 118 nM. Further, the IC50 at EGFR Exon19Del/T790M (EGFR Del19-T790M, 1 h, room temperature, read-out: IC50 (nM) @Del19-T790M) was 10 nM; on EGFR wild type (EGFR WT, 1 h, room temperature, read-out: IC50 (nM) @WT) it was 4880 nM. For the same compound, the GI50 with PC-9 (Homo sapiens, PC-9, 72 h) is 34 nM; in test [2] (setting [4]), 8.5 nM; in test [2] (setting [5]) it was 36 nM; in test [2] (setting [6]), 38 nM; in [2] (setting [7]) it was 21 nM; in test [2] (setting [8]), 52 nM. Further, the figures for the GI50 (in [2] (setting [9]); in [2] (setting [10]); in the test with A-431 (setting [11])) were 7.2 nM, 26 nM and 4680 nM, respectively. For the same compound, the pIC50 at EGFR Exon19Del (EGFR Del19, 1 mM ATP, 1 h, room temperature) is 7.82.

For `Cc1cc2cc(n1)-c1cnn(C)c1OCCN1CC3CCC(CC3)(C1)n1c(nc3ccc(N(C)CCN(C)C)cc31)NC2=O` [Example B32], the pIC50 in test [1] is 8.64; at EGFR (d746-750 C797S), 7.89; on EGFR[T790M/C797S/L858R], 8.41; on EGFR L858R/T790M, 7.96; at EGFR (C797S L858R) it was 6.93; at EGFR L858R, 6.71. In addition, the pIC50 is 8.18 at EGFR Exon19Del/T790M, 7.77 at EGFR Exon19Del (setting [3]) and less than 5.30 at EGFR wild type. Besides, the GI50 stood at 81 nM in the test with PC-9 (Homo sapiens, PC-9, 72 h); 11 nM in test [2] (setting [4]); 3 nM in test [2] (setting [5]); 78 nM in [2] (setting [6]); 7 nM in [2] (setting [7]); 20 nM in test [2] (setting [8]). The GI50 in test [2] (setting [9]) worked out at 64 nM; in test [2] (setting [10]) it was 4 nM; in the test with A-431 (setting [11]) it was 7410 nM.
